Each block holds one molecule with its values, some of them ahead of it.
Experiment: Water uptake experiments (Dynamic Vapor Sorption, water sorption/desorption isotherms at 25° C.)
Assay type: physicochemical
Experimental: A dry sample of the crystalline form having a melting point or a decomposition point of about 278° C. to about 285° C. (i.e., Form II) typically gains less than about 1% of its own weight when equilibrated under 80% relative humidity (RH) air at 25° C. […] For the present purposes, the term “essentially 0% RH” means less than about 1% RH. The term “equilibrated” means that the change in weight of a sample over time at a given relative humidity is less than 0.0003% ((dm/dt)/m0 ×100, where m is mass in mg, m0 is initial mass, and t is time in minutes).
Water sorption experiments are performed on a Dynamic Vapor Sorption (DVS) apparatus (DVS-1000 manufactured by Surface Measurements Systems, Inc.). Experiments are performed at 25° C. by initially drying the material of interest (about 10 mg sample) from 30% relative humidity (RH) ([…] RH step) by purging with dry nitrogen until no further weight change was observed. The samples are then exposed to a stepwise (10% RH steps) increase in RH from about 0 to about 90% RH. Each successive step is initiated when the change in weight over time at the relative humidity was less than 0.0003% ((dm/dt)/m0×100, where m is mass in mg, m0 is initial mass, and t is time in minutes). The sample is then taken through the reverse of the stepwise % RH increase. The data are collected on a computer and analyzed using SMS' proprietary MS-Excel macro interface software.

- Desorption % Weight Change (1.3% RH at 25° C.): −0.02695%
- Sorption % Weight Change (1.3% RH at 25° C.): −0.02695%
- Desorption % Weight Change (9.35% RH at 25° C.): 0.04235%
- Sorption % Weight Change (9.35% RH at 25° C.): 0.04715%
- Desorption % Weight Change (20.25% RH at 25° C.): 0.09715%
- Sorption % Weight Change (20.25% RH at 25° C.): 0.1058%
- Desorption % Weight Change (29.75% RH at 25° C.): 0.1444%
- Sorption % Weight Change (29.75% RH at 25° C.): 0.1376%
- Desorption % Weight Change (39.55% RH at 25° C.): 0.1866%
- Sorption % Weight Change (39.55% RH at 25° C.): 0.1809%
- Desorption % Weight Change (49.7% RH at 25° C.): 0.2636%
- Sorption % Weight Change (49.7% RH at 25° C.): 0.2386%
- Desorption % Weight Change (59.5% RH at 25° C.): 0.331%
- Sorption % Weight Change (59.5% RH at 25° C.): 0.304%
- Desorption % Weight Change (69.1% RH at 25° C.): 0.3983%
- Sorption % Weight Change (69.1% RH at 25° C.): 0.3945%
- Desorption % Weight Change (78.65% RH at 25° C.): 0.4849%
- Sorption % Weight Change (78.65% RH at 25° C.): 0.4695%
- Desorption % Weight Change (88.5% RH at 25° C.): 0.6446%
- Sorption % Weight Change (88.5% RH at 25° C.): 0.6446%
- hygroscopicity (crystalline form, 80% RH air at 25° C.): essentially non-hygroscopic
- weight gain when equilibrated under 80% relative humidity (RH) air at 25° C. (dry sample (dried at essentially 0% RH, about 25° C., dry nitrogen purge)): less than 1 % of its own weight
Structure (SMILES): CCCCC1(CCCC)CS(=O)(=O)c2ccc(N(C)C)cc2[C@@H](c2ccc(OCc3ccc(C[N+]45CCN(CC4)CC5)cc3)cc2)[C@H]1O [Form II, (4R,5R)-1-((4-(4-(3,3-dibutyl-7-(dimethylamino)-2,3,4,5-tetrahydro-4-hydroxy-1,1-dioxido-1-benzithiepin-5-yl)phenoxy)methyl)phenyl)methyl-4-aza-1-azoniabicyclo[2.2.2]octane chloride]

- Desorption % Weight Change (0.45% RH at 25° C.): 0.057%
- Sorption % Weight Change (0.45% RH at 25° C.): 0.057%
- Desorption % Weight Change (9.2% RH at 25° C.): 0.997%
- Sorption % Weight Change (9.2% RH at 25° C.): 0.9575%
- Desorption % Weight Change (20.05% RH at 25° C.): 2.1025%
- Sorption % Weight Change (20.05% RH at 25° C.): 2.016%
- Desorption % Weight Change (29.75% RH at 25° C.): 3.599%
- Sorption % Weight Change (29.75% RH at 25° C.): 3.4105%
- Desorption % Weight Change (39.4% RH at 25° C.): 4.743%
- Sorption % Weight Change (39.4% RH at 25° C.): 4.282%
- Desorption % Weight Change (49.55% RH at 25° C.): 5.321%
- Sorption % Weight Change (49.55% RH at 25° C.): 4.928%
- Desorption % Weight Change (59.4% RH at 25° C.): 5.726%
- Sorption % Weight Change (59.4% RH at 25° C.): 5.356%
- Desorption % Weight Change (69.05% RH at 25° C.): 6.054%
- Sorption % Weight Change (69.05% RH at 25° C.): 5.706%
- Desorption % Weight Change (78.8% RH at 25° C.): 6.357%
- Sorption % Weight Change (78.8% RH at 25° C.): 6.109%
- Desorption % Weight Change (88.5% RH at 25° C.): 6.734%
- Sorption % Weight Change (88.5% RH at 25° C.): 6.734%
Structure (SMILES): CCCCC1(CCCC)CS(=O)(=O)c2ccc(N(C)C)cc2[C@@H](c2ccc(OCc3ccc(C[N+]45CCN(CC4)CC5)cc3)cc2)[C@H]1O [Form I, (4R,5R)-1-((4-(4-(3,3-dibutyl-7-(dimethylamino)-2,3,4,5-tetrahydro-4-hydroxy-1,1-dioxido-1-benzithiepin-5-yl)phenoxy)methyl)phenyl)methyl-4-aza-1-azoniabicyclo[2.2.2]octane chloride]
